The text below walks through data of US20180256460A1, “STAIN-REMOVING ORAL COMPOSITION” (LOTTE CO., LTD., priority 2014, published 2018).

Series [1] in a line: Stain-removing effect of saliva solutions containing chewing gum components, color difference of stained hydroxyapatite discs. Particulars: for Stain-removing effect of the acidulant itself: color difference: 0.1% in saliva solution, pH 6, compared to the saliva alone (pH 7), FIG. 3A, n=5, p<0.05.
Protocol: Each research volunteer was asked to masticate one tablet of salivary gum (Morita Corporation), and about 30 ml of the saliva was collected respectively. The collected saliva was all combined in one container (beaker) so that personal information could not be traced. The collected saliva was centrifuged at 2,500×g for 10 minutes, and the supernatant was used as a saliva sample for a solvent in a testing solution.
The amount of the saliva collected when masticating 2 tablets of gum for 5 minutes was 15 ml on average. The sugar alcohol or acidulant was dissolved under stirring in a weight ratio corresponding to 2 tablets of the sample chewing gum into 15 ml of the saliva sample processed with the procedure of 2. That is, to 15 ml of a saliva sample, 2.31 g (15.4%) of the sugar alcohol or 15 mg (0.1%) of the acidulant was added and dissolved. Sodium metaphosphate was dissolved under stirring in an amount needed for each testing. For pH adjustment, an aqueous solution of hydrochloric acid or sodium hydroxide was used.
3% green tea extract, 1% black tea extract, and 1% instant coffee were dissolved under stirring in mineral water at 100° C. to obtain a staining liquid (instant coffee; Ajinomoto General Foods, Inc., mineral water; Suntory Foods Limited).
Hydroxyapatite discs (10 mm×10 mm, APP-100, HOYA Corporation) the surfaces of which were uniformly polished with a P400 waterproof abrasive paper were used as human enamel models. The hydroxyapatite discs after polishing were subjected to color measurement by the method of 6. as mentioned below to obtain reference values for the discs. The hydroxyapatite discs were separately put in a 12-well plate (IWAKI&Co., Ltd.) and immersed in 2.5 ml of the saliva sample and allowed to stand still at 37° C. for 2 hours so that saliva pellicles were formed on the surface. The discs were washed with water, and immersed in 2.5 ml of the staining liquid each added in each well of a fresh 12-well plate, and moderately shook at 37° C. for 24 hours so that stains were formed. The hydroxyapatite discs after staining were subjected to color measurement by the method in 6. mentioned below to obtain measurement values after staining. Hydroxyapatite discs after staining subjected to color measurement were placed in a fresh 12-well plate, and 2.5 ml of the saliva sample, the saliva solution containing chewing gum components, or the chewing gum extract solution was dispensed in each well, then the discs were immersed for 5 minutes or 35 minutes. The immersed discs were washed with distilled water, and extra water was wiped off with paper to dry the discs, followed by color measurement.
A spectrophotometer (CM-700d, Konica Minolta, Inc.) was set upright so that the colorimetric direction was upward. Hydroxyapatite discs before the pellicle formation, after staining or after the solution treatment were allowed to stand still above the colorimetric light source, and color measurements were performed 3 times successively, and the average value was employed. Color measurements were performed on the L*axis (lightness), the a*axis (chroma: red-green axis), and the b*axis (chroma: yellow-blue axis) of the L*a*b*color space based on JIS Z 8722:2009, under the condition of SCI including reflected light. […] E*ab was calculated according to the following expressions. […]
For series [2] the following is noted: aqueous system; cited from earlier work.

Entries after “also recorded” stand apart in the source; their conditions may differ.

Take `O=C(O)CC(O)(CC(=O)O)C(=O)O` [citric acid]: the “Stain-removing effect of the acidulant itself: color difference” value in series [1] is listed as “a decrease in the color difference was observed”. With `O=C(O)CC(O)C(=O)O` (centres unmarked) [malic acid], the “Stain-removing effect of the acidulant itself: color difference” value in series [1] is on record as “a decrease in the color difference was observed”. Consider `O=P(=O)O` [metaphosphoric acid], for which the pKa entry in series [2] was “as small as not measurable in an aqueous system”. In the case of sodium metaphosphate, the “Stain-removing effect: color difference of stained hydroxyapatite discs” value in series [1] (0.066% or 0.2% in the saliva, compared to the saliva alone, FIG. 1, n=6, p<0.05) is on record as “a significant difference was observed compared to the case where the discs were treated with the saliva alone; also recorded: a significant decrease in the color difference was observed”. Moreover, in series [1] (saliva with 0.1% sodium metaphosphate, pH 5 compared to pH 7, FIG. 3C, n=6, p<0.05), the “Influence of pH on stain removal: transition of the color difference” value is “a significant difference in the transition of the color difference was observed”.
